Results reported in paper PMC13441234 (2025).

Columns and labels:
[1] = system: Phenylalanine aptamer (on 8 nm SiO2 blocking layer) (DNA, aptamer) CGACCGCGTTTCCCAAGAAAGCAAGTATTGGTTGGTCG; experiment: square wave voltammetry, electrochemical aptamer sensor; conditions: 1x PBS, room temperature, 300 Hz, 50 mV amplitude, apparent, immobilised aptamer, n = 3 electrodes
[2] = system: Phenylalanine aptamer (on gold with alkylthiolate/MCH blocking layer) (DNA, aptamer) CGACCGCGTTTCCCAAGAAAGCAAGTATTGGTTGGTCG; experiment: as above; conditions: 1x PBS (cation concentrations not given); apparent; 300 Hz; immobilised aptamer; whether own (Figure A2) or literature value not explicit

## N[C@@H](Cc1ccccc1)C(=O)O
[1]
  binding constant: 12 µM
[2]
  binding constant: 400 µM
